Data published in US8536190B2, “Treating unwanted ocular conditions using an ascomycin macrolactam” (Allergan, Inc., priority 2007, dated 2013).

Experiments:
Format in all cases: in vivo, human
[1] = Preventative treatment of ocular conditions during weekly docetaxel treatments; settings: person, medication containing 1.0% pimecrolimus during the entire course of docetaxel treatments
Excerpt: A person is diagnosed with metastatic breast cancer. Their physician decides that the best course of cancer therapy includes weekly docetaxel treatments. In order to reduce or prevent the occurrence of unwanted ocular conditions as a result of the docetaxel treatments, the physician also prescribes a medication containing 1.0% pimecrolimus to be administered during the entire course of docetaxel treatments.

[2] = Treatment of epiphora (canalicular stenosis) after docetaxel chemotherapy; settings: person, docetaxel every three weeks, medication containing 0.03%, after one week of daily treatment
Excerpt: A physician diagnosis a person complaining of excessive tearing with epiphora. The physician determines that the cause of this excessive tearing was canalicular stenosis, and believes that this ocular condition was brought on by the person's prostate cancer therapy, which included docetaxel treatments every three weeks. The patient receives a medication containing 0.03% […].

[3] = Treatment of epiphora (punctal stenosis) in a patient undergoing docetaxel treatments; settings: person, docetaxel every three weeks, medication containing 0.1% tacrolimus, after one week of daily treatment
Excerpt: A person undergoing docetaxel treatments every three weeks as part of their breast cancer therapy developed epiphora during the seventh week. […] The patient receives a medication containing 0.1% tacrolimus.

CC[C@@H]1/C=C(\C)C[C@H](C)C[C@H](OC)[C@H]2O[C@@](O)(C(=O)C(=O)N3CCCC[C@H]3C(=O)O[C@H](/C(C)=C/[C@@H]3CC[C@H](Cl)[C@H](OC)C3)[C@H](C)[C@@H](O)CC1=O)[C@H](C)C[C@@H]2OC [pimecrolimus, Pimecrolimus]
occurrence of epiphora or symptoms of an ocular condition [1]: does not exhibit epiphora or show any symptoms of an ocular condition

Ascomycin [acromycin]
excessive tearing (epiphora) after treatment [2]: the excessive tearing subsides

Tacrolimus
excessive tearing (epiphora) after treatment [3]: the excessive tearing subsides
